Experimental data from publication PMC6952396, “Structural basis for itraconazole-mediated NPC1 inhibition” (Nature Communications, 2020).

How the values were obtained:
wild-type human NPC1 = system: T1, wild-type human NPC1; assay: Cross-linking of P-X to NPC1 in intact HEK-293S GnTI- cells overexpressing NPC1; type: cell-based; conditions: for inhibition of P-X cross-linking to WT NPC1 in intact cells: 0.3 μM P-X and 3 μM competitor, 1 h at 37 °C
T1 construct: expressed in transfected cells; host or cells: HEK-293S GnTI- cells (ATCC, CRL-3022), PEI transfection
Excerpt: pNPC1 encoding wild-type human NPC1 (amino acids 1–1278) followed sequentially by three tandem copies of the Flag epitope tag ([…]) was constructed into pcDNA3.1. Expression is achieved with the cytomegalovirus (CMV) promoter. Point mutations were introduced into the coding region of pNPC1 by site-directed mutagenesis using the QuikChange II XL Site-Directed Mutagenesis Kit (Agilent Technologies, Santa Clara, CA) and primers which are indicated in Supplementary Table 2. The coding region of each plasmid was sequenced to ensure integrity of the construct.
For cross-linking of P-X to NPC1 and mutants in intact cells, the mammalian HEK-293S GnTI^- cells (ATCC, CRL-3022) overexpressing NPC1 and mutants were set up in 500 mL of freestyle medium with 2% FCS at a density of 2 × 10^6 cells per ml. The cells were transfected with 0.5 mg of the indicated plasmid using PEI (Polysciences) as the transfection agent. After 48 h, cell culture was aliquoted to 10 cm dishes. Each dish received a direct addition of DMSO (final concentration, 0.2%) containing 0.3 μM P-X and 3 μM of various competitor compounds as described in the figure legends. After incubation for 1 h at 37 °C in the dark and without a change of media, the cells were irradiated for 10 min at room temperature under 306-nm UV light (Atlanta Light Bulb Co.) in a UV Stratalinker 2400 apparatus (Stratagene). Cells were subjected to centrifugation at 4000 g for 5 min. The pellet was washed once with PBS and then solubilized with 1 mL of buffer containing 50 mM Hepes pH 7.5, 150 mM NaCl, 1%(wt/vol) n-Dodecyl-β-D-maltopyranoside (DDM, Anatrace). Each solubilized lysate was incubated at room temperature for 1 h, and clarified by centrifugation at 15000 g for 1 min. The supernatant was then transferred to a fresh tube and incubated with anti-FLAG M2 magnetic beads for 1 h. After which the beads were applied to a magnet, washed three times with 1 mL of wash buffer containing 50 mM Hepes pH 7.5, 150 mM NaCl, 0.02% (wt/vol) DDM, and eluted with 100 μL of wash buffer containing 15 μg of 3x FLAG peptide. The purified protein was then tagged with Alexa Fluor 532 using click chemistry as described above. An aliquot of each sample was subjected to 8% SDS/PAGE, and fluorescent-labeled proteins were visualized by in-gel fluorescence as described above. After scanning the gel, the proteins were transferred to nitrocellulose and blotted with mouse monoclonal anti-Flag.

[1] = system: NPC1-mediated cholesterol export; conditions: cited from earlier work
[2] = system: NPC1 mutants (W381E, L613E, Y628S, I685S, and Y1225E); assay: Cross-linking of P-X to NPC1 binding-site mutants in intact HEK293S cells; type: cell-based, human; conditions: 0.3 μM P-X
Excerpt: The I-Br binds to a hydrophobic cavity that is generated by the SSD, the MLD and the CTD in the center of NPC1 (Fig. 3d). Residues in the N-terminal loop and C-terminal helices of the MLD and the CTD, as well as TMs 3, 4, 5, and 13 contribute to the cavity that accommodates I-Br (Figs. 3d, 4a, b). The terminal sec-butyl moiety of I-Br inserts into the cavity and is contacted by residues W381, I609, L613, I685, F1087, I1220, and Y1225 (Fig. 4a, b). […] To validate our structural observation, we have generated five NPC1 mutants (W381E, L613E, Y628S, I685S, and Y1225E) located in the binding site and individually transfected the mutant cDNAs into HEK293S cells.
pNPC1 encoding wild-type human NPC1 (amino acids 1–1278) followed sequentially by three tandem copies of the Flag epitope tag ([…]) was constructed into pcDNA3.1. Expression is achieved with the cytomegalovirus (CMV) promoter. […]
For cross-linking of P-X to NPC1 and mutants in intact cells, the mammalian HEK-293S GnTI^- cells (ATCC, CRL-3022) overexpressing NPC1 and mutants were set up in 500 mL of freestyle medium with 2% FCS at a density of 2 × 10^6 cells per ml. […] An aliquot of each sample was subjected to 8% SDS/PAGE, and fluorescent-labeled proteins were visualized by in-gel fluorescence as described above. […]

human NPC1 = system: T2, human NPC1; conditions: NPC1 reconstituted in lipid nanodiscs; cited from earlier work
T2 construct: Strep-tag; made in house; host or cells: HEK-293S GnTI- cells (baculovirus-mediated transduction)

SMILES | inhibition of P-X cross-linking to WT NPC1 in intact cells (wild-type human NPC1) | inhibition of cholesterol export from lysosomes [1] | inhibition of P-X cross-linking to WT NPC1 in intact cells (wild-type human NPC1; listed as ketoconazole) | cross-linking of P-X to WT NPC1 in intact cells (wild-type human NPC1; 0.3 μM P-X) | cross-linking of P-X to NPC1 mutants in cells [2] | cross-linking of P-X to purified NPC1 (human NPC1)
CCC(C)n1ncn(-c2ccc(N3CCN(c4ccc(OCC5COC(Cn6cncn6)(c6ccc(Cl)cc6Cl)O5)cc4)CC3)cc2)c1=O (stereo not shown) [Itraconazole mixture, itraconazole] | inhibits this reaction | inhibit cholesterol export from lysosomes |  |  |  | 
CC(=O)N1CCN(c2ccc(OCC3COC(Cn4ccnc4)(c4ccc(Cl)cc4Cl)O3)cc2)CC1 (stereo not shown) [Ketoconazole, ketoconazole] | could not inhibit |  | does not |  |  | 
C#CCOc1ccc(C(=O)c2ccc(C(=O)OC(C)C(CC)n3ncn(-c4ccc(N5CCN(c6ccc(OCC7COC(Cn8cncn8)(c8ccc(F)cc8F)O7)cc6)CC5)cc4)c3=O)cc2)cc1 (stereo not shown) [P-X] |  |  |  | can easily cross-link | not efficiently cross-linked | cross-linked
